Test results published in US20240150377A1, “MODULATORS OF CYSTIC FIBROSIS TRANSMEMBRANE CONDUCTANCE REGULATOR” (VERTEX PHARMACEUTICALS INCORPORATED, priority 2020, published 2024).
Read-outs that look alike come from different tables or passages of the source.

What was measured:
[1] = 13-membered ring, DMF
CFTR = CFTR (Homo sapiens, UniProt P13569); assay: Membrane potential dye, Enteroid Assay A; type: cell-based; settings: Table 6; for Ent. A Max Activity: chloride transport as % of triple combination control (Enteroid Assay A); for EC50: human enteroid cells, 18-24 hours, acute 10 μM forskolin and 300 nM ivacaftor, read-out: Ent. A EC50
CFTR, sequence (P13569 with tags, fused parts or gaps DEL508-508): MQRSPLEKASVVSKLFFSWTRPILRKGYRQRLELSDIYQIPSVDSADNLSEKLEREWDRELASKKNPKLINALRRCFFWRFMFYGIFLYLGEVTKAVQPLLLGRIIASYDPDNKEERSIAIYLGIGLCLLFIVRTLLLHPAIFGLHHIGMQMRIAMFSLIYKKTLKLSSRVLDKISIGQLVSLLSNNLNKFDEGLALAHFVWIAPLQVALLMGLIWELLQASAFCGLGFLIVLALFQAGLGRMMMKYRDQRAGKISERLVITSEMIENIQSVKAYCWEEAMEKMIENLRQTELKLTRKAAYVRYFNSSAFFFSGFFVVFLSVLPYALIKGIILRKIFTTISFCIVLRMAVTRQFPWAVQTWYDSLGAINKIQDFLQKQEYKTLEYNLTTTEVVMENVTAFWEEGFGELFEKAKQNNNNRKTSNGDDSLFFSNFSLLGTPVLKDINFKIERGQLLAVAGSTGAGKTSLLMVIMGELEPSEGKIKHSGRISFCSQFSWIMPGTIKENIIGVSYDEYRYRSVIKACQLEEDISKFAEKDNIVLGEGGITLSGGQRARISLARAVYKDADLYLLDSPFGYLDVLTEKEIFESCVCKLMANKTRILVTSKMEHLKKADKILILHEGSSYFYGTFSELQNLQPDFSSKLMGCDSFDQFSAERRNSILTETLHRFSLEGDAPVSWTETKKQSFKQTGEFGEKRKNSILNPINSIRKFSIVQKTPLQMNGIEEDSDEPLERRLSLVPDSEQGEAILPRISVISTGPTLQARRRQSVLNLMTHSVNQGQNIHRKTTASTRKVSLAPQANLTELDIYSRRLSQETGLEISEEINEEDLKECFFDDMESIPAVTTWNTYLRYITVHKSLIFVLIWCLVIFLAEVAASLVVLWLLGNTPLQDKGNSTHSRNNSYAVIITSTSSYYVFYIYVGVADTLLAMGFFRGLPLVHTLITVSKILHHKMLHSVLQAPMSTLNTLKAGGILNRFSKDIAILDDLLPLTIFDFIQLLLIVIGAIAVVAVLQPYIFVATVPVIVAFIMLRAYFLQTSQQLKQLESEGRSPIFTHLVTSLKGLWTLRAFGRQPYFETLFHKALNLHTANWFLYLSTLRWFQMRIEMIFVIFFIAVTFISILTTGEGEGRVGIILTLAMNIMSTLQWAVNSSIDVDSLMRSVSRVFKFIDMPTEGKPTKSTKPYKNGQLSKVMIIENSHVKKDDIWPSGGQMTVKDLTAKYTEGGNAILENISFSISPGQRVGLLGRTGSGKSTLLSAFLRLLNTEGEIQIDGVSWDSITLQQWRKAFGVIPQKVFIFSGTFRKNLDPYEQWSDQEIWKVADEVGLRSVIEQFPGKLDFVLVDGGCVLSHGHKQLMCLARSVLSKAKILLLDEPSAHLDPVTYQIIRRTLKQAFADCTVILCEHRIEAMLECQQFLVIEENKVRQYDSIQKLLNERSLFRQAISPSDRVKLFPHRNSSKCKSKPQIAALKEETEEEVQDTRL
Procedure, shortened: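 % Activity: chloride transport relative to a 3 μM/3 μM corrector pair plus 300 nM acute potentiator control. Primary human enteroid cells, 18-24 h compound exposure at 37 °C; membrane potential dye (methyl oxonol) fluorescence over 15 min after forskolin (10 μM)/IBMX (100 μM)/Compound III (300 nM) stimulation in chloride-free buffer.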

F508del = biological target: T1, F508del (Homo sapiens, UniProt P13569, DEL508-508); assay: 3T3 assay: membrane potential optical assay for F508del correction; type: cell-based; settings: Table 6, F508del NIH 3T3 cells; for Emax: NIH3T3, compared to lumacaftor in combination with acutely added 300 nM Ivacaftor, read-out: 3T3 Max Activity; for EC50: 18-24 hours at 37° C., forskolin, acutely added 300 nM Ivacaftor
T1 construct: expressed in transfected cells
T1 sequence (P13569 with tags, fused parts or gaps DEL508-508): as above
Excerpt: 1. Membrane Potential Optical Methods for Assaying F508del Modulation Properties of Compounds
The assay utilizes fluorescent voltage sensing dyes to measure changes in membrane potential using a fluorescent plate reader (e.g., FLIPR III, Molecular Devices, Inc.) as a readout for increase in functional F508del in NIH 3T3 cells. The driving force for the response is the creation of a chloride ion gradient in conjunction with channel activation by a single liquid addition step after the cells have previously been treated with compounds and subsequently loaded with a voltage sensing dye.
2. Identification of Corrector Compounds
To identify correctors of F508del, a single-addition HTS assay format was developed. This HTS assay utilizes fluorescent voltage sensing dyes to measure changes in membrane potential on the FLIPR III as a measurement for increase in gating (conductance) of F508del in F508del NIH 3T3 cells. The F508del NIH 3T3 cell cultures were incubated with the corrector compounds at a range of concentrations for 18-24 hours at 37° C., and subsequently loaded with a redistribution dye. The driving force for the response is a Cl^− ion gradient in conjunction with channel activation with forskolin in a single liquid addition step using a fluorescent plate reader such as FLIPR III.
Bath Solution #1: (in mM) NaCl 160, KCl 4.5, CaCl2) 2, MgCl2 1, HEPES 10, pH 7.4 with NaOH.
Chloride-free bath solution: Chloride salts in Bath Solution #1 (above) are substituted with gluconate salts.
NIH3T3 mouse fibroblasts stably expressing F508del are used for optical measurements of membrane potential. The cells are maintained at 37° C. in 5% CO2 and 90% humidity in Dulbecco's modified Eagle's medium supplemented with 2 mM glutamine, 10% fetal bovine serum, 1× NEAA, b-ME, 1×pen/strep, and 25 mM HEPES in 175 cm^2 culture flasks. For all optical assays, the cells were seeded at ˜20,000/well in 384-well Matrigel-coated plates. For the correction assays, the cells are cultured at 37° C. with and without compounds for 16-24 hours.

[2] = amide bond, 13-membered ring, DMF

Which ring closure, isolated yield ([1]; from CCC(C)(C)CC(COc1cc(-c2c(C)cccc2C)nc(NS(=O)(=O)c2cccc(C(=O)O)c2)n1)NCc1cncc(N(C)C2CCC2)n1, amide bond, CDMT/NMM, 19.5 mM, 16.2 h) does the source give for `CCC(C)(C)CC1COc2cc(-c3c(C)cccc3C)nc(n2)NS(=O)(=O)c2cccc(c2)C(=O)N1Cc1cncc(N(C)C2CCC2)n1` (stereo not shown) here?
Its ring closure, isolated yield is 65%.

Which ring closure, isolated yield ([1]; from COCN(c1nc(OC[C@H](N)CC(C)(C)C)cc(-c2c(C)cccc2C)n1)S(=O)(=O)c1cccc(C(=O)O)c1, amide bond, HATU/DIEA, 107.6 mM, 0.33 h) does the source give for `COCN1c2nc(cc(-c3c(C)cccc3C)n2)OC[C@@H](CC(C)(C)C)NC(=O)c2cccc(c2)S1(=O)=O` here?
The ring closure, isolated yield was 39%.

With `Cc1cccc(C)c1-c1cc2nc(n1)NS(=O)(=O)c1cccc(c1)C(=O)N(CC1CC3(CCN(C(=O)OC(C)(C)C)CC3)C1)[C@H](CC(C)C)CO2` as the compound, how does the ring closure, isolated yield ([1]; from Cc1cccc(C)c1-c1cc(OC[C@@H](CC(C)C)NCC2CC3(CCN(C(=O)OC(C)(C)C)CC3)C2)nc(NS(=O)(=O)c2cccc(C(=O)O)c2)n1, amide bond, HATU/DIEA, 9.3 mM, 25.0 °C, 2.0 h, 2 steps) read?
The ring closure, isolated yield was 33%.

For `Cc1cccc(C)c1-c1cc2nc(n1)NS(=O)(=O)c1cccc(c1)C(=O)N(CCC1CCN(C(=O)OC(C)(C)C)CC1)[C@H](CC(C)C)CO2`, which ring closure, isolated yield ([1]; from Cc1cccc(C)c1-c1cc(OC[C@@H](CC(C)C)NCCC2CCN(C(=O)OC(C)(C)C)CC2)nc(NS(=O)(=O)c2cccc(C(=O)O)c2)n1, amide bond, HATU/TEA, 125.0 mM, 25.0 °C, 1.0 h, 2 steps) is on record?
The ring closure, isolated yield was 94%.

With `Cc1cccc(C)c1-c1cc2nc(n1)NS(=O)(=O)c1cccc(c1)C(=O)N(CCCO[Si](C)(C)C(C)(C)C)[C@H](CC(C)C)CO2` as the compound, how does the ring closure, isolated yield ([1]; from Cc1cccc(C)c1-c1cc(OC[C@@H](CC(C)C)NCCCO[Si](C)(C)C(C)(C)C)nc(NS(=O)(=O)c2cccc(C(=O)O)c2)n1, amide bond, COMU/DIEA, 19.9 mM, 22.0 h) read?
The ring closure, isolated yield was 43%.

Which ring closure, isolated yield ([1]; from Cc1cccc(C)c1-c1cc(OC[C@@H](CC(C)(C)C)NCc2ccc3c(I)cn(C)c3n2)nc(NS(=O)(=O)c2cccc(C(=O)O)c2)n1, amide bond, 2-chloro-1-methylpyridinium iodide/DIEA, 35.1 mM, 16.0 h) does the source give for `Cc1cccc(C)c1-c1cc2nc(n1)NS(=O)(=O)c1cccc(c1)C(=O)N(Cc1ccc3c(I)cn(C)c3n1)[C@H](CC(C)(C)C)CO2` here?
The ring closure, isolated yield was 61%.

For `Cc1cccc(C)c1-c1cc2nc(n1)NS(=O)(=O)c1cccc(c1)C(=O)N(Cc1ccc3cc(I)n(C)c3n1)[C@H](CC(C)(C)C)CO2`, which ring closure, isolated yield ([1]; from Cc1cccc(C)c1-c1cc(OC[C@@H](CC(C)(C)C)NCc2ccc3cc(I)n(C)c3n2)nc(NS(=O)(=O)c2cccc(C(=O)O)c2)n1, amide bond, 2-chloro-1-methylpyridinium iodide/DIEA, 41.5 mM, 16.0 h) is on record?
The ring closure, isolated yield was 72%.

With `Cc1cccc(C)c1-c1cc2nc(n1)NS(=O)(=O)c1cccc(c1)C(=O)N(Cc1cccc(NC(=O)OC(C)(C)C)n1)[C@H](CC(C)(C)C)CO2` as the compound, how does the ring closure, isolated yield ([1]; from Cc1cccc(C)c1-c1cc(OC[C@@H](CC(C)(C)C)NCc2cccc(NC(=O)OC(C)(C)C)n2)nc(NS(=O)(=O)c2cccc(C(=O)O)c2)n1, amide bond, HATU/DIEA, 16.0 h, 2 steps) read?
Its ring closure, isolated yield is 31%.

With `Cc1cccc(C)c1-c1cc2nc(n1)NS(=O)(=O)c1cccc(c1)C(=O)N(Cc1cncc(Cl)n1)[C@H](CC(C)(C)C)CO2` as the compound, how does the ring closure, isolated yield ([1]; from Cc1cccc(C)c1-c1cc(OC[C@@H](CC(C)(C)C)NCc2cncc(Cl)n2)nc(NS(=O)(=O)c2cccc(C(=O)O)c2)n1, amide bond, CDMT/NMM, 12.4 mM, 25.0 °C, 16.5 h) read?
The ring closure, isolated yield was 56%.

For `Cc1cccc(C)c1-c1cc2nc(n1)NS(=O)(=O)c1cccc(c1)C(=O)N(Cc1cncc(Cl)n1)[C@H](CC1CCCCC1)CO2`, which ring closure, isolated yield ([1]; from Cc1cccc(C)c1-c1cc(OC[C@@H](CC2CCCCC2)NCc2cncc(Cl)n2)nc(NS(=O)(=O)c2cccc(C(=O)O)c2)n1, amide bond, CDMT/NMM, 20.4 mM, 16.2 h) is on record?
Its ring closure, isolated yield is 73%.

With `Cc1cccc(C)c1-c1cc2nc(n1)NS(=O)(=O)c1cccc(c1)C(=O)N(Cc1cncc(Cl)n1)[C@H](COC1CC1)CO2` as the compound, how does the ring closure, isolated yield ([1]; from Cc1cccc(C)c1-c1cc(OC[C@@H](COC2CC2)NCc2cncc(Cl)n2)nc(NS(=O)(=O)c2cccc(C(=O)O)c2)n1, amide bond, CDMT/NMM, 12.9 mM, 21.0 h) read?
The ring closure, isolated yield was 97%.

With `Cc1cccc(C)c1-c1cc2nc(n1)NS(=O)(=O)c1cccc(c1)C(=O)N(Cc1cncc(N(C)C3CCC3)n1)C1(CCC(C)(C)C1)CO2` (stereo not shown) as the compound, how does the ring closure, isolated yield ([1]; from Cc1cccc(C)c1-c1cc(OCC2(NCc3cncc(N(C)C4CCC4)n3)CCC(C)(C)C2)nc(NS(=O)(=O)c2cccc(C(=O)O)c2)n1, amide bond, CDMT/NMM, 18.1 mM, 120.0 h) read?
Its ring closure, isolated yield is 36%.

With `Cc1cccc(C)c1-c1cc2nc(n1)NS(=O)(=O)c1cccc(c1)C(=O)N(Cc1cncc(N3CCCC[C@H]3C)n1)C(CCC(C)(C)F)CO2` (stereo partly shown) as the compound, how does the ring closure, isolated yield ([1]; from Cc1cccc(C)c1-c1cc(OCC(CCC(C)(C)F)NCc2cncc(N3CCCC[C@H]3C)n2)nc(NS(=O)(=O)c2cccc(C(=O)O)c2)n1, amide bond, CDMT/NMM, 19.8 mM, 16.0 h) read?
Its ring closure, isolated yield is 54%.

With `Cc1cccc(C)c1-c1cc2nc(n1)NS(=O)(=O)c1cccc(c1)CN(C(=O)OC(C)(C)C)[C@H](CC(C)C)CO2` as the compound, how does the ring closure, isolated yield ([1]; from Cc1cccc(C)c1-c1cc(OC[C@@H](CC(C)C)NC(=O)OC(C)(C)C)nc(NS(=O)(=O)c2cccc(COS(C)(=O)=O)c2)n1, amine bond, NaH, 3.92 mM, 25.0 °C) read?
Its ring closure, isolated yield is 50%.

For `Cc1cccc(C)c1-c1cc2nc(n1)NS(=O)(=O)c1cccc(c1)C(=O)N(C)[C@H](CC(C)C)[C@H](CC(C)C)O2` [Compound 2, (10S,11R)-6-(2,6-Dimethylphenyl)-12-methyl-10,11-bis(2-methylpropyl)-9-oxa-2λ^6-thia-3,5,12,19-tetraazatricyclo[12.3.1.14,8]nonadeca-1(18),4(19),5,7,14,16-hexaene-2,2,13-trione], which “Ent. A Max Activity” value (CFTR) is on record?
The value was “+++ (+++ is >60%)”.

And the EC50 (CFTR)?
The EC50 was under 1 µM.

What about the Emax (F508del) of the same compound?
Its Emax is over 60%.

And the EC50 (F508del)?
Its EC50 is under 1 µM.

And the ring closure, yield after HPLC ([2]; from CN[C@H](CC(C)C)[C@H](CC(C)C)Oc1cc(-c2c(C)cccc2C)nc(NS(=O)(=O)c2cccc(C(=O)O)c2)n1, HATU/TEA, 18.8 mM, 15.0 h)?
The ring closure, yield after HPLC was 47%.

Which “Ent. A Max Activity” value (CFTR) does the source give for `Cc1cccc(C)c1-c1cc2nc(n1)NS(=O)(=O)c1cccc(c1)C(=O)N(CC(C)C)CCO2` [Compound 4, 6-(2,6-Dimethylphenyl)-12-isobutyl-2,2-dioxo-9-oxa-2λ^6-thia-3,5,12,19-tetrazatricyclo[12.3.1.14,8]nonadeca-1(18),4(19),5,7,14,16-hexaen-13-one] here?
The value was “+++ (+++ is >60%)”.

What about the EC50 (CFTR) of the same compound?
Its EC50 is under 1 µM.

And the Emax (F508del)?
The Emax was over 60%.

And the EC50 (F508del)?
The EC50 was under 1 µM.

And the ring closure, yield after HPLC ([2]; from Cc1cccc(C)c1-c1cc(OCCNCC(C)C)nc(NS(=O)(=O)c2cccc(C(=O)O)c2)n1, HATU/TEA, 91.6 mM, 0.5 h)?
Its ring closure, yield after HPLC is 48%.

Which results are given for `Cc1cccc(C)c1-c1cc2nc(n1)NS(=O)(=O)c1cccc(c1)C(=O)N(CCC1(C(F)(F)F)CC1)[C@H](CC(C)C)CO2` [Compound 37, (11R)-6-(2,6-Dimethylphenyl)-11-(2-methylpropyl)-12-{2-[1-(trifluoromethyl)cyclopropyl]ethyl}-9-oxa-2λ^6-thia-3,5,12,19-tetraazatricyclo[12.3.1.14,8]nonadeca-1(17),4(19),5,7,14(18),15-hexaene-2,2,13-trione]?
Ent. A Max Activity (CFTR): +++ (+++ is >60%); EC50 (CFTR): < 1 µM; Emax (F508del): > 60%; EC50 (F508del): < 1 µM; ring closure, yield after HPLC ([2]; from Cc1cccc(C)c1-c1cc(OC[C@@H](CC(C)C)NCCC2(C(F)(F)F)CC2)nc(NS(=O)(=O)c2cccc(C(=O)O)c2)n1, HATU/DIEA, 25.2 mM, 25.0 °C, 1.0 h): 37%

What does the source list for `Cc1cccc(C)c1-c1cc2nc(n1)NS(=O)(=O)c1cccc(c1)C(=O)N(CC1CC3(CCOCC3)C1)[C@H](CC(C)C)CO2` [Compound 40, (11R)-6-(2,6-Dimethylphenyl)-11-isobutyl-12-(7-oxaspiro[3.5]nonan-2-ylmethyl)-2,2-dioxo-9-oxa-2λ^6-thia-3,5,12,19-tetrazatricyclo[12.3.1.14,8]nonadeca-1(18),4(19),5,7,14,16-hexaen-13-one]?
Ent. A Max Activity (CFTR): +++ (+++ is >60%); EC50 (CFTR): < 1 µM; Emax (F508del): > 60%; EC50 (F508del): < 1 µM; ring closure, yield after HPLC ([2]; from Cc1cccc(C)c1-c1cc(OC[C@@H](CC(C)C)NCC2CC3(CCOCC3)C2)nc(NS(=O)(=O)c2cccc(C(=O)O)c2)n1, HATU/DIEA, 18.8 mM, 1.0 h): 63%
